Source: paper PMC7918738, “Microtubule Destabilizing Sulfonamides as an Alternative to Taxane-Based Chemotherapy” (International Journal of Molecular Sciences, 2021)
pIC50: −log10 of the molar value.

Assays:
[1] = tested on: SKOV3 ovarian carcinoma cells; set-up: method as in PMID 29291446; conditions: read-out: Antiproliferative IC50 SKOV3; cited from earlier work
[2] = tested on: microtubule network of MCF7, SKOV3, and HeLa cells; experiment: Immunofluorescence confocal microscopy of the microtubule network; assay type: cell-based, human; conditions: 72 h, 38 600 nM, 45 400 nM
Description: The effect of MDS 38 and 45 on the tubulin cytoskeleton was analyzed in MCF7, SKOV3, and HeLa cells after 72-h treatments. The microtubule network was visualized by confocal microscopy staining α-tubulin in green, and cell nuclei were stained in blue with DAPI (4’,6-diamidino-2-phenylindole) (Figure 4).
MCF7, SKOV-3, and HeLa cells were grown on glass coverslips coated with poly-L-lysine (12 mm diameter). To reach appropriate cell confluence, coverslips were manipulated in 6-well plates (3 coverslips/well) seeding 3 mL/well of cells in the exponential growth phase at 2 × 10^4 cells/mL. After 24 h incubation, cells were treated with selected compounds and incubated for 72 h. Cells were washed with PBS, fixed with 4% formaldehyde in PBS for 10 min, permeabilized with 0.5% Triton X-100 (Boehringer Mannheim, Ingelheim am Rhein, Germany) in PBS for 10 min and blocked with 10% BSA in PBS for 30 min. Microtubule detection was performed by incubation with anti-α-tubulin mouse monoclonal antibody (1:200 in 3% BSA/PBS) (Sigma-Aldrich) for 1.5 h. After PBS washing, coverslips were incubated with fluorescent secondary antibody Alexa Fluor 488 goat anti-mouse IgG (1:400 in 1% BSA/PBS) (Molecular Probes, Invitrogen, Thermo Fischer Scientific) for 1 h in darkness. […] Cells were analyzed by confocal microscopy using a LEICA SP5 microscope DMI-6000V model coupled to a LEICA LAS AF software computer.

Structure (SMILES)	pIC50 [1]	Effect on the microtubule network (α-tubulin immunofluorescence) [2]
COc1ccc(/C=C\c2cc(OC)c(OC)c(OC)c2)cc1O [Combretastatin A-4, reference compound]	6.42	–
CNc1ccc(S(=O)(=O)N(C)c2cc(OC)c(OC)c(OC)c2)cc1 [Compound 38]	–	disrupted the microtubule system
COc1ccc(S(=O)(=O)N(Cc2ccccc2)c2cc(OC)c(OC)c(OC)c2)cc1N [Compound 45]	–	disrupted the microtubule system
